Consider 3 molecules from publication PMC11341359, “Assessing the immunogenicity risk of salmon calcitonin peptide impurities using in silico and in vitro methods” (Frontiers in Pharmacology, 2024).

Holding throughout (assay): Class II HLA competition binding assay
One assay has as its target T1, HLA DRB1*1501 (Homo sapiens, UniProt P01903+P01911).
T1 construct: incubated overnight to equilibrium with a soluble HLA DR molecule; purchased Benaroya Research Institute, Seattle, Washington
Here is the method:
(§1) The class II HLA binding assays performed for these studies measure the binding affinity of a target peptide to HLA DRB1*0101, *0301, *0401, *0701, *0901, *1101, *1301, and *1501 in a standardized competition assay. This assay was originally described by [Steere et al. (2006)] and adapted by EpiVax. Previous publications have described the assay in detail ([McMurry et al., 2007]; [Ardito et al., 2011]). Briefly, unlabeled test peptides are incubated overnight to equilibrium with a soluble HLA DR molecule (Benaroya Research Institute, Seattle, Washington) and a biotinylated, allele-specific competitor peptide. The binding reaction is then neutralized, and peptide–HLA complexes are transferred to a 96-well plate coated with the pan-HLA DR antibody, clone L243 (BioLegend), and incubated overnight. The following day, Europium-labeled streptavidin (PerkinElmer, Waltham, MA) is added to identify the peptide–HLA complexes. An indirect measure of binding is determined by time-resolved fluorescence. Each peptide–HLA binding reaction is evaluated in triplicate over a range of seven concentrations. The percent inhibition values at seven distinct concentrations are used to calculate the IC50 value, defined as the concentration at which the test peptide inhibits 50% of the labeled competitor peptide.
(§2) Peptides that bind to the HLA at an IC50 value of 100 nM or less are considered very high-affinity binders. Peptides that bind at IC50 values ranging from 100 nM to 1,000 nM are considered high-affinity binders. Peptides that bind at IC50 values ranging from 1,000 nM to 10,000 nM are considered moderate-affinity binders. Peptides that bind at IC50 values ranging from 10,000 nM to 100,000 nM are considered low-affinity binders, and those with IC50 values ranging from 100,000 nM to 1,000,000 nM are considered negligible-affinity binders. […] We note that these concentrations are specific for the in vitro HLA-binding assay and are used to compare the relative binding affinities of the impurity sequences to the API and independent from the peptide concentrations described for the in vitro T-cell assays described below.

Another assay has as its target T2, HLA DRB1*0301 (Homo sapiens, UniProt P01903+P01911, A100K/A102G/A103R/A169T/F55Y/I96L/K41T/L162R/M171V/P40S/Q125H/Q178H/Q39Y/R42S/S66N/T106N/T262R/W38E/Y61H).
T2 construct: incubated overnight to equilibrium with a soluble HLA DR molecule; purchased Benaroya Research Institute, Seattle, Washington
The following applies: short assay peptides (Cys7 replaced with Ser), competition with biotinylated allele-specific peptide, soluble HLA DR, overnight, time-resolved fluorescence, triplicate, seven concentrations; for IC50, HLA DRB1*0301: unit not given. Here is the method:
as §1, §2

The target of the next assay is T3, HLA DRB1*0101 (Homo sapiens, UniProt P01903+P01911, A100R/D57E/F55L/F60I/F76Y/I96L/L162R/M171V/P40L/Q125E/R42F/V115G/Y59C).
T3 construct: incubated overnight to equilibrium with a soluble HLA DR molecule; purchased Benaroya Research Institute, Seattle, Washington
Particulars: short assay peptides (Cys7 replaced with Ser), competition with biotinylated allele-specific peptide, soluble HLA DR, overnight, time-resolved fluorescence, triplicate, seven concentrations. Here is the method:
as §1, §2

A further assay deals with HLA DRB1*0701 (Homo sapiens, UniProt P01903+P01911, A100R/A102G/A103Q/D57E/D86V/E43K/F76Y/K127E/L162R/M171V/P40G/Q125H/Q99D/R33Q/R42Y/R54Q/S133A/S66F/T210M/V115G/Y107V/Y59L/Y89S). Particulars: short assay peptides (Cys7 replaced with Ser); competition with biotinylated allele-specific peptide, soluble HLA DR, overnight, time-resolved fluorescence, triplicate, seven concentrations. Here is the method:
as §1, §2

Another assay addresses HLA DRB1*0901 (Homo sapiens, UniProt P01903+P01911, A100R/A103E/D57H/D86V/F55Y/F60I/F76Y/I96F/K127E/L162R/M171V/P40D/Q125H/Q99R/R33Q/R42F/S133A/S66N/T210M/V115G/W38K/Y107V/Y59G/Y89S). The following applies: short assay peptides (Cys7 replaced with Ser); competition with biotinylated allele-specific peptide, soluble HLA DR, overnight, time-resolved fluorescence, triplicate, seven concentrations. Here is the method:
as §1, §2

The next assay has as its target T4, HLA DRB1*1301 (Homo sapiens, UniProt P01903+P01911, A100E/A169T/K41T/L162R/M171V/P40S/Q125H/Q178H/Q39Y/Q99D/R42S/S66N/T262R/W38E/Y61H).
T4 construct: incubated overnight to equilibrium with a soluble HLA DR molecule; purchased Benaroya Research Institute, Seattle, Washington
The following applies: short assay peptides (Cys7 replaced with Ser), competition with biotinylated allele-specific peptide, soluble HLA DR, overnight, time-resolved fluorescence, triplicate, seven concentrations. Here is the method:
as §1, §2

The target in the next assay is T5, HLA DRB1*0401 (Homo sapiens, UniProt P01903+P01911, A100K/A169T/F76Y/I96L/K127E/L162R/M171V/N62H/P40V/Q125Y/R42H/S133A/S149N/S66Y/V115G/V209L/W38E).
T5 construct: incubated overnight to equilibrium with a soluble HLA DR molecule; purchased Benaroya Research Institute, Seattle, Washington
The following applies: short assay peptides (Cys7 replaced with Ser); competition with biotinylated allele-specific peptide, soluble HLA DR, overnight, time-resolved fluorescence, triplicate, seven concentrations. Here is the method:
as §1, §2

Another assay addresses T6, HLA DRB1*1101 (Homo sapiens, UniProt P01903+P01911, A100R/A169T/A87E/I96F/K41T/L162R/M171V/P40S/Q125H/Q178H/Q39Y/Q99D/R42S/S66Y/T262R/V115G/W38E).
T6 construct: incubated overnight to equilibrium with a soluble HLA DR molecule; purchased Benaroya Research Institute, Seattle, Washington
Here is the method:
as §1, §2

[1] abbreviates: short assay peptides (Cys7 replaced with Ser), competition with biotinylated allele-specific peptide, soluble HLA DR, overnight, time-resolved fluorescence, triplicate, seven concentrations, unit inferred.
Setting [2] is: class by IC50, short assay peptides.

pIC50: −log10 of the molar value. Peptide text beside a SMILES is read from it.

The term pIC50 denotes the negative decadic logarithm of the IC50, by convention in mol/L. For `CC(C)C[C@H](NC(=O)[C@H](CCCCN)NC(=O)CNC(=O)[C@H](CC(C)C)NC(=O)[C@@H](NC(=O)[C@H](CO)NC(=O)[C@@H](NC(=O)[C@@H](N)CO)[C@@H](C)O)C(C)C)C(=O)N[C@@H](CO)C(=O)N[C@@H](CCC(N)=O)C(=O)N[C@@H](CCC(=O)O)C(=O)N[C@@H](CC(C)C)C(=O)N[C@@H](Cc1c[nH]cn1)C(=O)N[C@@H](CCCCN)C(=O)N[C@@H](CC(C)C)C(=O)N[C@@H](CCC(N)=O)C(=O)N[C@H](C(=O)N[C@@H](Cc1ccc(O)cc1)C(=O)O)[C@@H](C)O` [API SCT(5-22)] (H-STSVLGKLSQELHKLQTY-OH), the pIC50 on HLA DRB1*1501 (setting [1]) was 4.02; at HLA DRB1*0301 (unit inferred), less than 3.00; at HLA DRB1*0101 (unit inferred), 4.95; at HLA DRB1*0701 it was less than 3.00; at HLA DRB1*0901, less than 3.00; on HLA DRB1*1301 (unit inferred), less than 3.00. Besides, the negative logarithm of the IC50 (pIC50) on HLA DRB1*0401 was less than 3.00; at HLA DRB1*1101 (setting [1]), 3.98.

As for `CC(C)C[C@H](NC(=O)[C@H](CCCCN)NC(=O)[C@@H](N)Cc1c[nH]cn1)C(=O)N[C@@H](CCC(N)=O)C(=O)N[C@H](C(=O)N[C@@H](Cc1ccc(O)cc1)C(=O)N1CCC[C@H]1C(=O)N[C@@H](CCCNC(=N)N)C(=O)N[C@H](C(=O)N[C@H](C(=O)NCC(=O)N[C@@H](CO)C(=O)NCC(=O)N[C@H](C(=O)O)[C@@H](C)O)[C@@H](C)O)[C@@H](C)O)[C@@H](C)O` [DES-ASN26_SCT(17-31)] (H-HKLQTYPRTTGSGT-OH; N-terminus and C-terminus assumed), the “binding affinity class, HLA DRB1*1501” value on HLA DRB1*1501 (setting [2]) is “moderate affinity”. On HLA DRB1*0301, the “IC50, HLA DRB1*0301” value is given as “no binding”. Besides, the “IC50, HLA DRB1*0101” value on HLA DRB1*0101 (unit not given) is given as “no binding”. Moreover, at HLA DRB1*0901, the “IC50, HLA DRB1*0901” value was “no binding”. Besides, at HLA DRB1*0401, the “IC50, HLA DRB1*0401” value is given as “no binding”. For the same molecule, the “binding affinity class, HLA DRB1*1101” value on HLA DRB1*1101 (setting [2]) is on record as “negligible affinity”.

Turning to `CC(C)C[C@H](NC(=O)[C@H](CCC(=O)O)NC(=O)[C@H](CCC(N)=O)NC(=O)[C@@H](N)CO)C(=O)N[C@@H](Cc1c[nH]cn1)C(=O)N[C@@H](CCCCN)C(=O)N[C@@H](CC(C)C)C(=O)N[C@@H](CCC(N)=O)C(=O)N[C@@H](Cc1ccc(O)cc1)C(=O)N1CCC[C@H]1C(=O)N[C@@H](CCCNC(=N)N)C(=O)N[C@H](C(=O)N[C@@H](CC(N)=O)C(=O)N[C@H](C(=O)NCC(=O)N[C@@H](CO)C(=O)NCC(=O)N[C@H](C(=O)O)[C@@H](C)O)[C@@H](C)O)[C@@H](C)O` [DES-THR21_SCT(13-27)] (H-SQELHKLQYPRTNTGSGT-OH; N-terminus and C-terminus assumed), the “IC50, HLA DRB1*0301” value on HLA DRB1*0301 is “did not bind”. The “IC50, HLA DRB1*1301” value on HLA DRB1*1301 (unit not given) is “did not bind”. At HLA DRB1*0401, the “IC50, HLA DRB1*0401” value is “did not bind”.
